Patent US8309553B2, “Anhydrous crystal form of ovrepitant maleate” (Glaxo Group Limited, priority 2008, dated 2012)

Legend:
[1] = stability of the crystalline form (statement only, no method described); format: physicochemical
[2] = hygroscopicity of the crystalline form (statement only, no method described); format: physicochemical; conditions: solid form

thermodynamic stability relative to Form 2 ([1]; compared with Form 2 orvepitant maleate): thermodynamically more stable
stability of the crystalline form ([1]; solid form): particularly stable
hygroscopicity [2]: essentially non hygroscopic
Structure (SMILES): Cc1cc(F)ccc1[C@H]1C[C@@H](N2CCN3C(=O)CC[C@H]3C2)CCN1C(=O)N(C)[C@H](C)c1cc(C(F)(F)F)cc(C(F)(F)F)c1.O=C(O)/C=C\C(=O)O [Form 1, (2R,4S)—N-{(1R)-1-[3,5-bis(trifluoromethyl)phenyl]ethyl}-2-(4-fluoro-2-methylphenyl)-N-methyl-4-[(8aS)-6-oxohexahydropyrrolo[1,2-a]pyrazin-2(1H)-yl]-1-piperidinecarboxamide maleate]
